According to PubChem BioAssay (NCI):
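GI50 = concentration required for 50% inhibition of growth. TGI denotes the concentration required for complete inhibition of growth.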

What was measured:
Experiment in all cases: inhibition of tumour cell growth, NCI panel, 384-well format
NCI-H23 lung = system: NCI-H23 lung
KM12 colon = system: KM12 colon
HOP-62 NSCLC = system: HOP-62 NSCLC
SK-OV-3 ovarian = system: SK-OV-3 ovarian
MDA-MB-435 melanoma = system: MDA-MB-435 melanoma
HS 578T breast = system: HS 578T breast
HCC-2998 colon = system: HCC-2998 colon
MDA-MB-231 breast = system: MDA-MB-231 breast
NCI-H522 lung = system: NCI-H522 lung
UACC-62 melanoma = system: UACC-62 melanoma
HCT-116 colon = system: HCT-116 colon
NCI-H226 lung = system: NCI-H226 lung
SK-MEL-28 melanoma = system: SK-MEL-28 melanoma
ACHN renal = system: ACHN renal
HCT-15 colon = system: HCT-15 colon
U251 glioblastoma = system: U251 glioblastoma
LOX IMVI melanoma = system: LOX IMVI melanoma
NCI-H460 NSCLC = system: NCI-H460 NSCLC
A549 NSCLC = system: A549 NSCLC
BT-549 breast = system: BT-549 breast
IGROV1 ovarian = system: IGROV1 ovarian
SR leukemia = system: SR leukemia
SN12C renal = system: SN12C renal
SNB-75 CNS = system: SNB-75 CNS
M14 melanoma = system: M14 melanoma
SNB-19 CNS = system: SNB-19 CNS
NCI-H322M lung = system: NCI-H322M lung
786-0 renal = system: 786-0 renal
OVCAR-5 ovarian = system: OVCAR-5 ovarian
OVCAR-3 ovarian = system: OVCAR-3 ovarian
SK-MEL-5 melanoma = system: SK-MEL-5 melanoma
SF-539 CNS = system: SF-539 CNS
MDA-MB-468 breast = system: MDA-MB-468 breast
MOLT-4 leukemia = system: MOLT-4 leukemia
PC-3 prostate = system: PC-3 prostate
SW-620 colon = system: SW-620 colon
TK-10 renal = system: TK-10 renal
HT29 colon = system: HT29 colon
MALME-3M melanoma = system: MALME-3M melanoma
SF-268 CNS = system: SF-268 CNS
HOP-92 NSCLC = system: HOP-92 NSCLC
DU-145 prostate = system: DU-145 prostate
SK-MEL-2 melanoma = system: SK-MEL-2 melanoma
RXF 393 renal = system: RXF 393 renal
OVCAR-8 ovarian = system: OVCAR-8 ovarian
A498 renal = system: A498 renal
T-47D breast = system: T-47D breast
MCF7 breast = system: MCF7 breast
NCI/ADR-RES ovarian = system: NCI/ADR-RES ovarian
OVCAR-4 ovarian = system: OVCAR-4 ovarian
RPMI-8226 leukemia = system: RPMI-8226 leukemia
EKVX NSCLC = system: EKVX NSCLC
HL-60(TB) leukemia = system: HL-60(TB) leukemia
CAKI-1 renal = system: CAKI-1 renal
CCRF-CEM leukemia = system: CCRF-CEM leukemia
K-562 leukemia = system: K-562 leukemia
UACC-257 melanoma = system: UACC-257 melanoma
SF-295 CNS = system: SF-295 CNS
COLO 205 colon = system: COLO 205 colon

Oc1ccc(-c2nc(-c3ccc(F)cc3)c(-c3ccncc3)[nH]2)cc1
GI50 (NCI-H23 lung): 29.2 µM | TGI (NCI-H23 lung): 85.4 µM | GI50 (KM12 colon): 20.2 µM | TGI (KM12 colon): 37.2 µM | GI50 (HOP-62 NSCLC): 19 µM | TGI (HOP-62 NSCLC): 42.9 µM | GI50 (SK-OV-3 ovarian): 13 µM | TGI (SK-OV-3 ovarian): 32.7 µM | GI50 (MDA-MB-435 melanoma): 10.4 µM | TGI (MDA-MB-435 melanoma): 44 µM | GI50 (HS 578T breast): 15.7 µM | TGI (HS 578T breast): 31.3 µM | GI50 (HCC-2998 colon): 23.9 µM | TGI (HCC-2998 colon): 40.8 µM | GI50 (MDA-MB-231 breast): 20.7 µM | TGI (MDA-MB-231 breast): > 60 µM | GI50 (NCI-H522 lung): 7.46 µM | TGI (NCI-H522 lung): 22.2 µM | GI50 (UACC-62 melanoma): 3.62 µM | TGI (UACC-62 melanoma): 16.8 µM | GI50 (HCT-116 colon): 20 µM | TGI (HCT-116 colon): > 53.3 µM | GI50 (NCI-H226 lung): 18.7 µM | TGI (NCI-H226 lung): 39.4 µM | GI50 (SK-MEL-28 melanoma): 7.27 µM | TGI (SK-MEL-28 melanoma): 22.4 µM | GI50 (ACHN renal): 12.2 µM | TGI (ACHN renal): 31.5 µM | GI50 (HCT-15 colon): 15.4 µM | TGI (HCT-15 colon): 32.9 µM | GI50 (U251 glioblastoma): 18.6 µM | TGI (U251 glioblastoma): 48.3 µM | GI50 (LOX IMVI melanoma): 17.6 µM | TGI (LOX IMVI melanoma): 31.8 µM | GI50 (NCI-H460 NSCLC): 15.3 µM | TGI (NCI-H460 NSCLC): 28.9 µM | GI50 (A549 NSCLC): 19.2 µM | TGI (A549 NSCLC): > 52.1 µM | GI50 (BT-549 breast): 19.2 µM | TGI (BT-549 breast): > 57.2 µM | GI50 (IGROV1 ovarian): 1.62 µM | TGI (IGROV1 ovarian): 20.9 µM | GI50 (SR leukemia): 10.3 µM | TGI (SR leukemia): 22.1 µM | GI50 (SN12C renal): 44.3 µM | TGI (SN12C renal): > 100 µM | GI50 (SNB-75 CNS): 32.9 µM | TGI (SNB-75 CNS): > 85.4 µM | GI50 (M14 melanoma): 5.7 µM | TGI (M14 melanoma): 21 µM | GI50 (SNB-19 CNS): 41.7 µM | TGI (SNB-19 CNS): > 100 µM | GI50 (NCI-H322M lung): 21.3 µM | TGI (NCI-H322M lung): 52.5 µM | GI50 ([…]-0 renal): 12.9 µM | TGI (786-0 renal): 26.6 µM | GI50 (OVCAR-5 ovarian): 23.6 µM | TGI (OVCAR-5 ovarian): 47 µM | GI50 (OVCAR-3 ovarian): 14.9 µM | TGI (OVCAR-3 ovarian): 29 µM | GI50 (SK-MEL-5 melanoma): 10.6 µM | TGI (SK-MEL-5 melanoma): 22.5 µM | GI50 (SF-539 CNS): 17.6 µM | TGI (SF-539 CNS): 35.8 µM | GI50 (MDA-MB-468 breast): 4.59 µM | TGI (MDA-MB-468 breast): 19.3 µM | GI50 (MOLT-4 leukemia): 11.9 µM | TGI (MOLT-4 leukemia): 24.3 µM | GI50 (PC-3 prostate): 18.7 µM | TGI (PC-3 prostate): > 57 µM | GI50 (SW-620 colon): 23.5 µM | TGI (SW-620 colon): 38.4 µM | GI50 (TK-10 renal): 18.8 µM | TGI (TK-10 renal): 57.3 µM | GI50 (HT29 colon): 5.85 µM | TGI (HT29 colon): 20.9 µM | GI50 (MALME-3M melanoma): 3.34 µM | TGI (MALME-3M melanoma): 9.1 µM | GI50 (SF-268 CNS): 18.3 µM | TGI (SF-268 CNS): 46.2 µM | GI50 (HOP-92 NSCLC): 15.9 µM | TGI (HOP-92 NSCLC): 60.4 µM | GI50 (DU-145 prostate): 14.8 µM | TGI (DU-145 prostate): 31.2 µM | GI50 (SK-MEL-2 melanoma): 16.3 µM | TGI (SK-MEL-2 melanoma): 30 µM | GI50 (RXF 393 renal): 15 µM | TGI (RXF 393 renal): 31.5 µM | GI50 (OVCAR-8 ovarian): 22.7 µM | TGI (OVCAR-8 ovarian): > 100 µM | GI50 (A498 renal): 16.4 µM | TGI (A498 renal): 46.2 µM | GI50 (T-47D breast): 12.5 µM | TGI (T-47D breast): 27.1 µM | GI50 (MCF7 breast): 18.8 µM | TGI (MCF7 breast): > 100 µM | GI50 (NCI/ADR-RES ovarian): 20.2 µM | TGI (NCI/ADR-RES ovarian): 46.6 µM | GI50 (OVCAR-4 ovarian): 47.5 µM | TGI (OVCAR-4 ovarian): > 100 µM | GI50 (RPMI-8226 leukemia): 5.38 µM | TGI (RPMI-8226 leukemia): 13.1 µM | GI50 (EKVX NSCLC): 14.7 µM | TGI (EKVX NSCLC): 33.2 µM | GI50 (HL-60(TB) leukemia): 14.6 µM | TGI (HL-60(TB) leukemia): 27.7 µM | GI50 (CAKI-1 renal): 7.98 µM | TGI (CAKI-1 renal): > 48.4 µM | GI50 (CCRF-CEM leukemia): 10.1 µM | TGI (CCRF-CEM leukemia): 21.8 µM | GI50 (K-562 leukemia): 10.5 µM | TGI (K-562 leukemia): 24.2 µM | GI50 (UACC-257 melanoma): 21.9 µM | TGI (UACC-257 melanoma): > 54 µM | GI50 (SF-295 CNS): 17.5 µM | TGI (SF-295 CNS): 33.1 µM | GI50 (COLO 205 colon): 8.47 µM | TGI (COLO 205 colon): 22.1 µM
